# According to patent publication US7387778B2, “Therapeutic methods and compositions for the treatment of impaired interpersonal and behavioral disorders” (Institut Pasteur, priority 1999, dated 2008):
# Columns and labels:
# male Wistar/AF EOPS rats [1] = assay: Behavioral despair test (forced swimming); assay type: in vivo, rat; conditions: for Immobility period, Test session / Immobility period, Retest session: first 5 minutes; for Immobility period, Test session: test is before any treatment
# Experimental: Forty male Wistar/AF EOPS rats (Iffa-Credo Breeding Centre, 69-St-Germain sur l'Arbresle, France), weighing 300 to 320 g, were used. On arrival, the rats were labelled and distributed randomly in pairs into type F polycarbonate cages (48×27×20 cm, U.A.R., 91-Epinay-Sur-Orge, France). The animals were stabled in an air-conditioned animal house, at a temperature of 22-24° C. The rats were given food (M25 croquettes, Ets Piétrement, 77-Provins, France) and drink ad libitum and were subjected to a 12-hour light-darkness cycle.
# After one week of familiarization with the laboratory conditions, the rats were weighed and distributed randomly into 3 treatment groups (n=12). The rats of the different groups will all be handled in the same way and under the same conditions.
# The behavioral despair test takes place over two sessions: • a 15-minute test session; • a 5-minute retest session, performed 24 hours later.
# During the test session, the rat was subjected to forced swimming in a Plexiglas cylinder (20 cm in diameter and 50 cm in height, containing 25 cm of water at 25° C.) and its behavior was recorded over 15 minutes. At the end of the test, the rat was removed from the water, dried gently, treated and then returned to its dwelling cage.
# During the retest, 24 hours later, the rat was again placed in the water and its behavior was recorded over 5 minutes.
# The recorded variables are the period of immobility during the first 5 minutes of both the test and the retest.
# The peptide FG-005 was suspended at a rate of 500 μg per 5 ml of 0.01N acetic acid, and then diluted with PBS to be administered at doses of 50 and 100 μg/kg via the i.v. route into the dorsal caudal vein of the rat, immediately after the test and 300 and 5 minutes before the retest the following day (Table X). 8-OH-DPAT was injected i.p.
# A bilateral probability paired t test was used to compare the two periods of immobility of the test with those of the retest in each of the groups. The results are expressed as an average standard error of mean (SEM) (Table XI and FIG. 20). The statistical and graphical processing was performed using Statview5 and DeltaGraph® Pro 3.5 software.
# male rats [2] = conditions: high doses; cited from earlier work
# male Wistar rats [3] = assay: Irwin test; assay type: in vivo, rat; conditions: injected into tail vein, escalating doses
# Experimental: An Irwin test was performed on 12 male Wistar rats (Iffa Credo, L'Arbresles, France), weighing 260-280 g. They were housed in groups of 4 in a climate controlled room with a 12 h light:dark cycle (light 8:00 PM-8:00 AM) and had access to food and water ad libitum. After a seven day acclimatization period, the rats were weighed, identified and randomly assigned to one of the four treatment groups. The drug was injected to the tail vein of the rats according to the group dose.
# Observations were performed 15, 30, 60 and 120 minutes after administration. Among the most noticeable results are the results concerning the awareness state of the rats. […] Rats injected FG-005 are less stressed as shown by startle response test (FIG. 2), and by the abdominal tone (FIG. 3).
# male Wistar rats [4] = assay: Behavior of male rats in the presence of receptive females; assay type: in vivo, rat
# Experimental: Behavior tests were performed on 12 male Wistar rats (Iffa Credo, L'Arbresles, France), weighing 260-280 g. They were housed in groups of 4 in a climate controlled room with a 12-h light:dark cycle and had access to food and water ad libitum. After seven days acclimatization period, the rats were weighed, identified and randomly assigned to one of the four treatment groups. The rats were familiarized once with female rats which had been brought to sexual receptivity by injecting estradiol benzoate for 4 days (5 μg/0.5 ml oil, s.c. once daily). Behavioral testing was performed under blind conditions in a dimlight environment 2 hours after the onset of the dark phase of the light/dark cycle. Behavior was assessed by placing the male rat in a plexiglass cage (50×30×20 cm) five minutes before a receptive female was presented. All of the tests on rats were recorded on a VHS-videotape. The recorded parameters were: number of ejaculations, latency of first mount, latency of first ejaculation, number of mounts, postejaculatory interval, avoidance behavior patterns, awareness of other rats presence, initiation or response to social interaction, interest in other rat, self-care, willingness to enter into relationship. All of the quantitative results were analyzed using the Kruskal-Wallis test followed by the Mann-Whitney U-Test to compare each treated group with the control group. The statistical analyzes were carried out using the Statview 4.1 statistical package.
# [5] = tested on: male rats with sexually receptive female; assay: Dose-response relationship of FG-005 on male rat sexual behavior; assay type: in vivo; conditions: for total number of mounts with or without intromission, Mean: 45-min observation
# Experimental: Effect of increasing concentrations of FG-005 peptide (SMR1-QHNPR) given i.v. on the number of sexual intercourse episodes of male rats with sexually receptive female, was assessed. All of the […] parameters were analyzed using one-way analysis of variance (ANOVA) for the differences between treated groups and followed by the multiple comparison test of Fisher (PLSD Fisher) to compare each group of FG-005-injected rats with the control group (vehicle-injected rats). Nine to ten rats were used for each group and P value of less than 0.005 was considered as significant for both tests.
# This is appreciated by the significant dose-dependent increase of sexual interactions (mounts, mounts with intromission and mounts per ejaculation) during (first ejaculation latency and interejaculatory latency) episodes of sexual intercourse.
# male rats [6] = assay: First two post ejaculatory intervals (PEI); assay type: in vivo, rat
# Experimental: All quantitative results are statistically analyzed using a Krukal-Wallis test (KWT), as a between-group variable, followed by Mann-Whitney U-test (MWT) to compare the treated group to control one. Friedman test (FT), as within-group variable, was used for repeated measures across the first three ejaculatory series, followed by Wilcoxon (WT). Data are reported as mean ±SEM. For all statistical evaluations, the level of significance was set at p<0.05. All statistical analyses were carried out using the Statview™ 4.5 statistical package (Abacus Concepts, Inc, Berkeley, Calif.).
# Masculine sociosexual behaviors other than copulatory acts were measured and analyzed during the two successive post-ejaculatory intervals. Among these are pursuit of the female, sniffing, grooming, running behind the partner in close contact and anogenital exploration (sniffing, licking and grooming the partner). […] Thus, for a similar amount of time in PEI duration compared to controls, the 3 μg/kg-treated rats spent during this interval, 7 to 10 fold more amount of time to pursue and groom the female.
# male Wistar/AF EOPS rats [7] = assay: Behavioral despair test (forced swimming); assay type: in vivo, rat; conditions: 100 mg/kg; difference not statistically significant
compound,measurement,setting,value
"CCCN(CCC)C1CCc2cccc(O)c2C1 (centres unmarked) [8-OH-DPAT, reference compound]","Immobility period, Test session",male Wistar/AF EOPS rats [1]; 0.5 mg/kg i.p. group,109.20
same,"Immobility period, Retest session","male Wistar/AF EOPS rats [1]; 0.5 mg/kg i.p., 1440, 300, 30 min before retest",31.60
same,"period of immobility, retest compared with test",male Wistar/AF EOPS rats [1]; 8-OH-DPAT 0.5 mg/kg i.p.,significantly reduce their period of immobility
same,anti-resignation effect,"male Wistar/AF EOPS rats [1]; reference substance, 0.5 mg/kg i.p.",significant anti-resignation effect
CC[C@H](C)[C@@H]1NC(=O)[C@H](Cc2ccc(O)cc2)NC(=O)[C@@H](N)CSSC[C@@H](C(=O)N2CCC[C@H]2C(=O)N[C@@H](CC(C)C)C(=O)NCC(N)=O)NC(=O)[C@H](CC(N)=O)NC(=O)[C@H](CCC(N)=O)NC1=O [oxytocin],locomotion,male rats [2],decrease locomotion
"Gln-His-Asn-Pro-Arg (QHNPR; This is a peptide sequence that was designed to achieve therapeutic effects in mammals.) [FG-005, synthesized pentapeptide with N-terminal Glutamine]",abdominal tone (FIG. 3),male Wistar rats [3],less stressed
same,aggressiveness,male Wistar rats [3],not associated with an increase of aggressiveness
same,finger approach test,male Wistar rats [3],increased interest
same,startle response test (FIG. 2),male Wistar rats [3],less stressed
same,vocalization when third parties approach,male Wistar rats [3],increased vocalization
same,wire maneuver test,male Wistar rats [3],Significant response
same,tail pinch test (FIGS. 4-7),"male Wistar rats [3]; 15, 30, 60, 120 minutes",less reactivity to nociceptive stimuli
same,awareness state / sleep (FIG. 1),male Wistar rats [3]; after 2 hours of tests,much less likely to fall asleep
same,"Latency of the first mount, Mean",male Wistar rats [4]; 3 μg/kg,93.333 s
same,latency of first mounts (in words),male Wistar rats [4]; 3 μg/kg,significantly increased latency
same,"number of ejaculations in 45 minutes, Mean",male Wistar rats [4]; 3 μg/kg,5.333
same,"refractory period between the second ejaculation and the next mount, Mean",male Wistar rats [4]; 3 μg/kg,311.333 s
same,"Latency of the first mount, Mean",male Wistar rats [4]; 15 μg/kg,23.000 s
same,"number of ejaculations in 45 minutes, Mean",male Wistar rats [4]; 15 μg/kg,4.000
same,"refractory period between the second ejaculation and the next mount, Mean",male Wistar rats [4]; 15 μg/kg,412.000 s
same,"Latency of the first mount, Mean",male Wistar rats [4]; 30 μg/kg,13.667 s
same,"number of ejaculations in 45 minutes, Mean",male Wistar rats [4]; 30 μg/kg,4.667
same,"refractory period between the second ejaculation and the next mount, Mean",male Wistar rats [4]; 30 μg/kg,373.667 s
same,avoidance symptoms during refractory periods,male Wistar rats [4]; treated vs control rats,loss of avoidance symptoms
same,duration of refractory periods (in words),male Wistar rats [4]; treated vs control rats,shortened
same,interest in the other rat after ejaculation,male Wistar rats [4]; treated vs non-treated rats,interest is maintained
same,"number of episodes of intercourse (number of ejaculations in 45 minutes, in words)",male Wistar rats [4]; treated vs non-treated rats,significantly increased
same,"self-care, attention to personal toilet after each penetration",male Wistar rats [4]; treated vs non-treated rats,increased
same,mean number of mounts per ejaculation,[5]; 0.3 μg/kg i.v.,20.220
same,"number of mounts before the first ejaculation, Mean",[5]; 0.3 μg/kg i.v.,31.111
same,"number of mounts before the fourth ejaculation (interejaculatory interval), Mean",[5]; 0.3 μg/kg i.v.,11.500
same,"number of mounts before the third ejaculation (interejaculatory interval), Mean",[5]; 0.3 μg/kg i.v.,13.444
same,"number of mounts with intromission, Mean",[5]; 0.3 μg/kg i.v.,77.111
same,"total number of mounts with or without intromission, Mean",[5]; 0.3 μg/kg i.v.,81.778
same,mean number of mounts per ejaculation,[5]; 1 μg/kg i.v.,26.911
same,"number of mounts before the first ejaculation, Mean",[5]; 1 μg/kg i.v.,33.444
same,"number of mounts before the fourth ejaculation (interejaculatory interval), Mean",[5]; 1 μg/kg i.v.,19.143
same,"number of mounts before the third ejaculation (interejaculatory interval), Mean",[5]; 1 μg/kg i.v.,18.333
same,"number of mounts with intromission, Mean",[5]; 1 μg/kg i.v.,90.556
same,"total number of mounts with or without intromission, Mean",[5]; 1 μg/kg i.v.,96.667
same,first ejaculation latency,[5]; 3 μg/Kg vs vehicle-injected rats,increased significantly
same,total number of ejaculations,"[5]; 3 μg/Kg, 45 min observation period",lower than that of vehicle-treated rats
same,mean number of mounts per ejaculation,[5]; 3 μg/kg i.v.,36.013
same,"number of mounts before the first ejaculation, Mean",[5]; 3 μg/kg i.v.,37.500
same,"number of mounts before the fourth ejaculation (interejaculatory interval), Mean",[5]; 3 μg/kg i.v.,24.167
same,"number of mounts before the third ejaculation (interejaculatory interval), Mean",[5]; 3 μg/kg i.v.,22.889
same,"number of mounts with intromission, Mean",[5]; 3 μg/kg i.v.,97.700
same,"total number of mounts with or without intromission, Mean",[5]; 3 μg/kg i.v.,110.100
same,third ejaculation latency,[5]; dose-related manner,tended also to increase
same,second ejaculation latency,[5]; pronounced effect at 1 and 3 μg/Kg,significant dose-related prolongation
same,aggressive impulse behavior,[5]; treated vs control rats,loss of aggressive impulse behavior
same,duration of the first PEI,male rats [6]; 1 μg/kg vs control,significantly longer
same,duration of the second PEI,"male rats [6]; 0.3, 1 and 3 μg/kg",not significantly influenced
same,duration of male socio-sexual behaviors during the first and second PEI,"male rats [6]; 0.3, 1 and 3 μg/kg vs controls",significantly more time
same,duration of male immobility during the first and second PEI,"male rats [6]; 0.3, 1 and 3 μg/kg vs vehicle controls",significantly less time
same,"Immobility period, Retest session","male Wistar/AF EOPS rats [1]; 50 μg/kg i.v., 1440, 300, 5 min before retest",141.20 ± 21.28
same,"period of immobility, retest compared with test","male Wistar/AF EOPS rats [1]; 50 μg/kg, difference not statistically significant",increase their period of immobility
same,"Immobility period, Retest session","male Wistar/AF EOPS rats [1]; 100 μg/kg i.v., 1440, 300, 5 min before retest",121.50 ± 17.47
same,behavioral resignation (antidepressant effect),"male Wistar/AF EOPS rats [1]; 50 and 100 μg/kg, i.v.",no behavioral resignation
same,"Immobility period, Test session","male Wistar/AF EOPS rats [1]; FG-50 group, 50 μg/kg i.v.",119.00 ± 13.79
same,"Immobility period, Test session","male Wistar/AF EOPS rats [1]; FG-100 group, 100 μg/kg i.v.",138.30 ± 11.03
same,"period of immobility, retest compared with test",male Wistar/AF EOPS rats [7],reduce it
